Measurements from patent publication US6406881B2 (priority 1999, dated 2002).

Key:
[1] = test system: Escherichia coli; experiment: Mutant prevention concentration (MPC) against Escherichia coli; format: cell-based; settings: for WI (MPC/MIC): window index
[2] = test system: Staphylococcus aureus; experiment: Mutant prevention concentration (MPC) against Staphylococcus aureus; format: cell-based; settings: for WI (MPC/MIC): window index

Compound	MPC (MPC10^10) [1]	WI (MPC/MIC) [1]	MPC (MPC10^10) [2] [μg/ml]	WI (MPC/MIC) [2]	WI (MPC/MIC) ([2]; listed as chloramphenicol)	WI (MPC/MIC) ([2]; listed as rifampicin)
O=C(N[C@H](CO)[C@H](O)c1ccc([N+](=O)[O-])cc1)C(Cl)Cl [Chloramphenicol]	12 μg/ml	6.3	40	21	about 21	
CCn1cc(C(=O)O)c(=O)c2cc(F)c(N3CCNCC3)cc21 [Norfloxacin]	1.5 μg/ml	33	22	26		
CO[C@H]1/C=C/O[C@@]2(C)Oc3c(C)c(O)c4c(O)c(c(/C=N/N5CCN(C)CC5)c(O)c4c3C2=O)NC(=O)/C(C)=C\C=C\[C@H](C)[C@H](O)[C@@H](C)[C@@H](O)[C@@H](C)[C@H](OC(C)=O)[C@@H]1C [Rifampicin]	>4,000 μg/ml	>800	480	120,000		greater than 120,000
NC[C@H]1O[C@H](O[C@H]2[C@H](O)[C@@H](O[C@H]3O[C@H](CO)[C@@H](O)[C@H](N)[C@H]3O)[C@H](N)C[C@@H]2N)[C@H](N)C[C@@H]1O [Tobramycin]	25 μg/ml	21	20	74		
CN[C@H](CC(C)C)C(=O)N[C@H]1C(=O)N[C@@H](CC(N)=O)C(=O)N[C@H]2C(=O)N[C@H]3C(=O)N[C@H](C(=O)N[C@H](C(=O)O)c4cc(O)cc(O)c4-c4cc3ccc4O)[C@H](O)c3ccc(c(Cl)c3)Oc3cc2cc(c3O[C@@H]2O[C@H](CO)[C@@H](O)[C@H](O)[C@H]2O[C@H]2C[C@](C)(N)[C@H](O)[C@H](C)O2)Oc2ccc(cc2Cl)[C@H]1O [Vancomycin]			40	61		
Penicillin	300 μg/ml	100	1	42		
